The source of these data is patent US8088916B2, “Hyaluronic acid-methotrexate conjugate” (priority 2004, dated 2012).

For data set [1], the system named is mBSA-induced monoarthritis model. As to the kind of experiment: Suppressive effect on knee joint swelling in mBSA-induced monoarthritis model. It counts as in vivo, rat. The following applies: for AUC (% of control) (mean ± SEM): AUC of knee joint swelling to two weeks after induction, control = HA-treated group, 50 μL into right knee joint 7 and 1 day before and 7 days after induction. The method, then:
An in vivo synovitis-suppressing effect of each HA-MTX conjugate of the invention was assessed on the basis of a suppressive effect on knee joint swelling in a methylated bovine serum albumin (mBSA)-induced monoarthritis model of rat. Since the mBSA-induced arthritis model employed in this experimental example is widely used as an antigen-induced arthritis model, and known to develop synovitis (Sven E. Andersson, et al., The Journal of Rheumatology (1998) 25: 9, 1772-7), the in vivo knee joint swelling-suppressing effect observed in this model conceivably represents a synovitis-suppressing effect. The compounds of the invention suppressing synovitis in vivo are useful as therapeutic drugs for joint diseases accompanied by synovitis (RA, OA, and the like).
The animal used was the LEW/Crj rat (6-week old male, from Charles River Laboratories Japan, Inc.). Into the flank of the rat was subcutaneously injected 0.5 mL of an emulsion prepared from a 2 mg/mL mBSA (Calbiochem) aqueous solution and an equal amount of Freund's complete adjuvant (Difco) 21 and 14 days before inducing arthritis. The arthritis was induced by administering 50 μL of a 2 mg/mL mBSA aqueous solution into the right knee joint. The left knee joint was untreated, and served as control in each individual. Each test substance (sterile aqueous solution) and the control drug hyaluronic acid were each administered into the right knee joint in an amount of 50 μL 7 and 1 day before and 7 days after inducing arthritis.
The determination of knee joint swelling involved measuring the widths of both knee joints with calipers to define the left/right difference (right knee diameter-left knee diameter) as a knee joint swelling. The width of each knee joint was measured at a frequency of twice a week from immediately before inducing arthritis to two weeks later to calculate AUC (an abbreviation for Area Under the Curve; here, it means an area under a curve with time for the joint swelling) from the transition thereof with time. At each measurement, the mean and standard deviation of AUC were calculated to perform an unpaired t-test between each test substance-treated group and the HA-treated group, and significant difference was judged to be present if the probability level is less than 5%. Statistical analysis used SAS version 6.12 (SAS Institute Japan). In addition, the AUC of each test substance was calculated, using that in the HA-treated group as a control, as a relative value (% of control) therefor.
To verify the usefulness of the HA-MTX conjugate of the invention, the suppressive effect on joint swelling was compared, in accordance with the method of Example 3, among: 1) a group treated with the HA-MTX conjugate (sterile aqueous solution) prepared in Example 2-2; 2) a group treated with a solution containing MTX of an amount equal to that of MTX contained in the HA-MTX conjugate; and 3) a group of treated with a mixture (HA+MTX) of MTX and hyaluronic acid (HA) of amounts equal to those contained in the conjugate. The transition of knee joint swelling with time in this test is shown in FIG. 2, and the AUC thereof in FIG. 3.

The subject of data set [2] is human synovial cells (HFLS). The data set is described as follows: Anti-proliferative effect on synovial cells stimulated by TNF-α ([3H]-deoxyuridine uptake). It counts as cell-based. The following applies: TNF-α 10 ng/mL, 5 days culture, concentration calculated as MTX from conjugation rate. An excerpt:
An effect of the HA-MTX conjugates of the invention on cell proliferation induced by TNF-α stimulation was examined using human synovial cells (HFLS). The main lesion in rheumatoid arthritis (RA) occurs in the synovial tissue, and, as one of the features, it is known that synovial cells abnormally proliferate to form a granulation tissue (pannus) and thereby destroy the cartilage and bone of the joint. Secondary synovitis is also observed in osteoarthritis (OA). […] Thus, a compound inhibiting the proliferation of synovial cells stimulated by the inflammatory cytokine TNF-α suppresses the progression of the pathologic conditions of RA and OA and becomes a therapeutic drug therefor. The sterile aqueous solutions of the HA-MTX conjugates in Example 2 (Table 2) were used as test substances. HFLS (CA40405, Lot Nos. 1413 and 1493) was purchased from Cell Applications Ins. for use. HFLS was seeded at 5,000 cells/well on a 96-well plate (Falcon) and cultured for 3 hours in Iscove's modified Dulbecco's medium (IMDM) containing 5% FBS and 1× Antibiotic-Antimycotic (GIBOC). After cellular attachment, TNF-α (final concentration: 10 ng/mL) and each HA-MTX conjugate at each concentration was added, followed by cultivation for 5 days. Two days before the end of culture, was added 37 kBq/well of [^3H]-deoxyuridine in the cells (MORAVEK), followed by determining the uptake quantity (radioactivity) of [^3H]-deoxyuridine using a scintillation counter. Cells were recovered by unsticking them with 0.05% trypsin-0.2% EDTA. Radioactivity determined in each of the experiments with each test substance was calculated as a relative value (% of control), using, as control, radioactivity in the group of cells cultured without adding any test substance. […] GraphPad Prism 3.02).

Data set [3] can be described thus: Measurement of viscoelasticity. The following applies: sterile solutions, 37° C., cone 4 cm, CSL500 stress-controlled rheometer; FIG. 1. Format: physicochemical. The method, then: The viscoelasticities of the sterile solutions of hyaluronic acids (molecular weights: 1,900,000 and 800,000) and the conjugates of Examples 2-1, 2-8, 2-18, 2-27, and 2-29 were measured at 37° C. using a cone 4 cm in diameter by a CSL500 stress-controlled rheometer (from Carri-Med Ltd.).

For orientation: IC50 means the point on the concentration scale where inhibition reaches its midpoint. For `CN(Cc1cnc2nc(N)nc(N)c2n1)c1ccc(C(=O)N[C@@H](CCC(=O)O)C(=O)O)cc1` [MTX alone, methotrexate], the “suppressive effect on joint swelling / alleviating effect on synovitis” value in data set [1] (Experimental Example 4: conjugate vs equal amount of MTX vs mixture HA+MTX, FIGS. 2 and 3) is “neither MTX alone nor the mixture of HA and MTX had a sufficient alleviating effect on synovitis”. Further, in data set [2], the IC50 is 0.055 µM. Take “MTX-α-AsnPhePhe-NHC10H20O3NH-HA [Example 2-47]”: in data set [1], the “AUC (% of control) (mean ± SEM)” value was 42.1 ± 6.3 % of control. For the same compound, the half-inhibitory concentration (IC50) in data set [2] is 1.1 µM. As to MTX-α-Glu-NHC2H4NH-HA [Example 2-30], in data set [1], the “AUC (% of control) (mean ± SEM)” value is listed as 58.3 ± 7.4 % of control. Besides, in data set [2], the IC50 is 54 µM. On to “MTX-α-Glu-NHC10H20O3NH-HA [Example 2-29]”, for which the “AUC (% of control) (mean ± SEM)” value in data set [1] is on record as 68.8 ± 6.7 % of control. Further, in data set [3], the viscoelasticity result is “viscoelasticities intermediate between those of the hyaluronic acids having molecular weights of 800,000 and 1,900,000”. In addition, the IC50 in data set [2] was 8.4 µM. In the case of “MTX-α-His-NHC10H20O3NH-HA [Example 2-36]”, the half-maximal inhibitory concentration (IC50) in data set [2] is 17 µM.

In the case of MTX-α-Ile-NHC2H4NH-HA [Example 2-28], the “AUC (% of control) (mean ± SEM)” value in data set [1] is 63.5 ± 4.7 % of control. Moreover, the IC50 in data set [2] is 12 µM. Regarding “MTX-α-Leu-NHC10H20O3NH-HA [Example 2-34]”, the IC50 in data set [2] is 3.6 µM. With “MTX-α-Phe-NHC10H20O3NH-HA [Example 2-26]”, in data set [2], the concentration for half-maximal inhibition (IC50) is 1.7 µM.

Turning to “MTX-α-PheGly-NHC4H8ONH-HA [Example 2-22]”, in data set [2], the IC50 is 3 µM. As to “MTX-α-PheGly-NHC6H12O2NH-HA [Example 2-21]”, the “AUC (% of control) (mean ± SEM)” value in data set [1] is on record as 47.4 ± 8.8 % of control. The IC50 in data set [2] was 0.83 µM. The matching figures for “MTX-α-PheGly-NHC8H16O2NH-HA [Example 2-20]”: 65.3 ± 9.6 % of control and 18 µM.

Consider “MTX-α-PheGly-NHC10H20O2NH-HA [Example 2-19]”, for which the IC50 in data set [2] was 5.4 µM.

For “MTX-α-PheGly-NHC10H20O3NH-HA [Example 2-15]”, the IC50 in data set [2] is 0.48 µM. On the same count and under the same terms, the same measure for “MTX-α-PheGly-NHC10H20O3NH-HA [Example 2-16]”: 13 µM. As to “MTX-α-PheGly-NHC10H20O3NH-HA [Example 2-17]”, the “AUC (% of control) (mean ± SEM)” value in data set [1] is 56.1 ± 8.2 % of control. Also, the IC50 in data set [2] is 13 µM.

On to MTX-α-PhePhe-Lys-HA [Example 2-14], for which, in data set [1], the “AUC (% of control) (mean ± SEM)” value was 54.3 ± 7.4 % of control. Moreover, the IC50 in data set [2] is 15 µM. The matching figures for MTX-α-PhePhe-NHC2H4NH-HA [Example 2-2′]: 65.5 ± 7.5 % of control and 0.72 µM. As to MTX-α-PhePhe-NHC2H4NH-HA [Example 2-3], the “AUC (% of control) (mean ± SEM)” value in data set [1] is 76.2 ± 7.7 % of control. Regarding MTX-α-PhePhe-NHC2H4NH-HA [Example 2-4], the “AUC (% of control) (mean ± SEM)” value in data set [1] is 69.0 ± 6.5 % of control. Moreover, the IC50 in data set [2] was 11 µM. Taken in the same sequence, the figures for MTX-α-PhePhe-NHC2H4NH-HA [Example 2-5] were 51.7 ± 3.8 % of control and 1.1 µM. Taken in the same sequence, the figures for MTX-α-PhePhe-NHC2H4NH-HA [Example 2-6] were 41.6 ± 7.6 % of control and 0.091 µM. On to MTX-α-PhePhe-NHC2H4NH-HA [Example 2-7], for which the “AUC (% of control) (mean ± SEM)” value in data set [1] was 46.5 ± 4.8 % of control. In the case of “MTX-α-PhePhe-NHC4H80NH-HA [Example 2-12]”, the IC50 in data set [2] is 0.3 µM. “MTX-α-PhePhe-NHC5H10NH-HA [Example 2-13]”: in data set [1], the “AUC (% of control) (mean ± SEM)” value is 60.5 ± 9.9 % of control. Moreover, in data set [2], the IC50 was 1.5 µM. Consider “MTX-α-PhePhe-NHC6H12O2NH-HA [Example 2-11]”, for which the IC50 in data set [2] is 0.25 µM. As for “MTX-α-PhePhe-NHC8H16O2NH-HA [Example 2-10]”, the “AUC (% of control) (mean ± SEM)” value in data set [1] is given as 63.7 ± 9.1 % of control. The concentration for half-maximal inhibition (IC50) in data set [2] was 1.2 µM. Regarding “MTX-α-PhePhe-NHC10H20O2NH-HA [Example 2-9]”, the 50% inhibitory concentration (IC50) in data set [2] was 1.3 µM.

As to “MTX-α-PhePhe-NHC10H20O3NH-HA [Example 2-49]”, in data set [2], the concentration for half-maximal inhibition (IC50) was 13 µM.

As for “MTX-α-PhePro-NHC10H20O3NH-HA [Example 2-23]”, the half-maximal inhibitory concentration (IC50) in data set [2] is 12 µM. As for “MTX-α-PheβAla-NHC2H4NH-HA [Example 2-25]”, in data set [2], the IC50 is 0.29 µM. The same measure, in the same setting: the same measure for “MTX-α-PheβAla-NHC10H20O3NH-HA [Example 2-24]”: 3.5 µM; for “MTX-α-Ser-NHC10H20O3NH-HA [Example 2-33]”: 36 µM; for “MTX-α-Trp-NHC10H20O3NH-HA [Example 2-32]”: 4.7 µM. In the case of “MTX-α-Tyr-NHC10H20O3NH-HA [Example 2-31]”, the “AUC (% of control) (mean ± SEM)” value in data set [1] is 67.7 ± 6.2 % of control. In addition, in data set [2], the IC50 was 7 µM. On to “MTX-α-Val-NHC10H20O3NH-HA [Example 2-35]”, for which the IC50 in data set [2] is 11 µM. Take “MTX-α-βAla-NHC10H20O3NH-HA [Example 2-38]”: the “AUC (% of control) (mean ± SEM)” value in data set [1] was 69.3 ± 4.2 % of control. Turning to “MTX-α/γ-GlyPheLeuGly-NHC10H20O3NH-HA (methotrexate-GFLG-{NHC10H20O3NH-hyaluronic acid}; also: methotrexate linked via α- or γ-carboxyl) [Example 2-48]”, in data set [1], the “AUC (% of control) (mean ± SEM)” value is 58.8 ± 11.6 % of control. For the same compound, the half-inhibitory concentration (IC50) in data set [2] was 1.3 µM. “MTX-γ-PheGly-NHC10H20O3NH-HA [Example 2-42]”: the IC50 in data set [2] is 14 µM. On to “MTX-γ-PhePhe-NHC4H8ONH-HA [Example 2-41]”, for which, in data set [1], the “AUC (% of control) (mean ± SEM)” value was 67.1 ± 8.3 % of control.

On to “MTX-γ-PhePhe-NHC10H20O3NH-HA [Example 2-39]”, for which the IC50 in data set [2] was 3.2 µM.
